In US20260250320A1, “LIPIDATED PEPTIDE INHIBITORS OF INTERLEUKIN-23 RECEPTOR” (Janssen Pharmaceutica NV, priority 2023, published 2026):
*1 amine or outer side, *2 acyl side, *3 side chain or, on linkers, in order; H or OH if unused. Where a SMILES comes first, the peptide text is derived from it. Bridges are numbered along the chain shown (N, C = ends). Side-chain parts run from the residue outwards. [ ]: non-standard residue; d: D form. The star is where a group is joined. Me3N+(CH2)2O(CH2)2O(CH2)2CO = C[N+](C)(C)CCOCCOCCC(=O)*; NH(CH2CH2O)2CH2CH2NMe3+ = C[N+](C)(C)CCOCCOCCN*; Trp(7-Me) = Cc1cccc2c(C[C@H](N)C(=O)O)c[nH]c12; C18 diacid = O=C(O)CCCCCCCCCCCCCCCCC(=O)*; γGlu = O=C(O)[C@H](CCC(=O)[*:2])N[*:1]; 2Nal = N[C@@H](Cc1ccc2ccccc2c1)C(=O)O; AEF = NCCOc1ccc(C[C@H](N)C(=O)O)cc1; 3Pal = N[C@@H](Cc1cccnc1)C(=O)O; Lys(Me) = CNCCCC[C@H](N)C(=O)O; Pen = CC(C)(S)[C@H](N)C(=O)O; Thp = NC1(C(=O)O)CCOCC1; AEEA = NCCOCCOCC(=O)O; Sar = CNCC(=O)O

How the values were obtained:
[1] = system: IL-23-stimulated phosphorylated STAT3 in peripheral blood mononuclear cells (PBMCs); experiment: PBMC pSTAT3 Assay; assay type: cell-based; details: PBMCs from healthy donors; 30 min preincubation with peptide; IL-23 5 ng/mL for 30 min; phospho-STAT3 by MSD
Summary of the method: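 Healthy-donor PBMCs expanded 4 days on anti-CD3 with 100 ng/mL IL-1β, starved ~4 h in RPMI-0.1% BSA, preincubated 30 min with peptide, then stimulated 30 min at 37 °C with 5 ng/mL IL-23. Lysate pSTAT3 measured by MSD phospho-STAT panel; IC50 derived.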

IL-23R = target: T1, IL-23R (Homo sapiens, UniProt Q5VWK5); experiment: IL23R Reporter Assay; assay type: cell-based; details: HEK293 cells containing IL-23R, IL-12Rβ1 and STAT-inducible firefly luciferase reporter; 10 ng/mL IL-23 (EC90); 5 h
T1 construct: HEK293 cells containing IL-23R, IL-12Rβ1 and a firefly luciferase reporter gene driven by a STAT-inducible promoter (Promega); host or cells: HEK293
T1 sequence (Q5VWK5 24-629): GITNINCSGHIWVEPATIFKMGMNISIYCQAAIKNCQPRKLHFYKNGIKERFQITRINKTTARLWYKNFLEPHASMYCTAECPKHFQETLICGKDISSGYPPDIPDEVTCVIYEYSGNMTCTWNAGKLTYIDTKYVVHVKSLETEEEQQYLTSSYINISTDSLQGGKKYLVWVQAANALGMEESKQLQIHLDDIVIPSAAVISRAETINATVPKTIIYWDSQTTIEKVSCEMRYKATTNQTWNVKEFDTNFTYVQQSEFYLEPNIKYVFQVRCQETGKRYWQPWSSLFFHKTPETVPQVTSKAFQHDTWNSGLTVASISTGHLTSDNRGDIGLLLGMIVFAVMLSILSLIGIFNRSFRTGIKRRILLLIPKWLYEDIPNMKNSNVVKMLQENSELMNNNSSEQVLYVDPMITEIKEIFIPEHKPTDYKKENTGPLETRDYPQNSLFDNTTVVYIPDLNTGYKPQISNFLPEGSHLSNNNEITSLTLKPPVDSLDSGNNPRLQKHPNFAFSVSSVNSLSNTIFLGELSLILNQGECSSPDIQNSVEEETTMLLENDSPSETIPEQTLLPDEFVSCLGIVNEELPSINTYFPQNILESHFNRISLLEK
Summary of the method: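 HEK293 cells carrying IL-23R, IL-12Rβ1 and a STAT-driven firefly luciferase reporter (4000 cells/well) received compound, then 10 ng/mL IL-23 solution (EC90), and were incubated for 5 h at 37° C. BioGlo luminescence was normalised to IL-23 alone (0%) and 30 μM control inhibitor (100%). IC50 came from a 4-parameter Hill fit.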

| IC50 (IL-23R) [nM] | Compound | IC50 [1] [nM] |
| --- | --- | --- |
| ≥ 500 | CC(=O)NCCCC[C@@H]1NC(=O)[C@H](Cc2c[nH]c3c(C)cccc23)NC(=O)[C@H]([C@@H](C)O)NC(=O)[C@H](CCCCNC(=O)COCCOCCNC(=O)COCCOCCNC(=O)CC[C@H](NC(=O)CCCCCCCCCCCCCCCCC(=O)O)C(=O)O)NC(=O)[C@@H](NC(=O)[C@@H](CCCNC(=N)N)NC(C)=O)C(C)(C)SSC(C)(C)[C@@H](C(=O)N[C@@H](Cc2ccc(OCCN)cc2)C(=O)N[C@@H](Cc2ccc3ccccc3c2)C(=O)NC2(C(=O)N[C@@H](CCC(=O)O)C(=O)N[C@@H](CC(N)=O)C(=O)N[C@@H](Cc3cccnc3)C(=O)N(C)CC(=O)NCCOCCOCC[N+](C)(C)C)CCOCC2)NC1=O [compound 66, MeCO-r-Pen(3)-K(PEG2PEG2gEC18OH)-T-7MeW-K(Ac)-Pen(3)-AEF-2Nal-THP-E-N-3Pya-Sar-CONH(PEG3a)] (Ac-[dR][Pen]K([AEEA-AEEA-γGlu-C18 diacid])T[Trp(7-Me)]K(Ac)[Pen][AEF][2Nal][Thp]EN[3Pal][Sar]-{NH(CH2CH2O)2CH2CH2NMe3+}; disulfide 2-7) | 0.5 to 5 |
| 50 to 500 | CC(=O)NCCCC[C@@H]1NC(=O)[C@H](Cc2c[nH]c3c(C)cccc23)NC(=O)[C@H]([C@@H](C)O)NC(=O)[C@H](CC(N)=O)NC(=O)[C@@H](NC(=O)[C@@H](CCCNC(=N)N)NC(=O)COCCOCCNC(=O)COCCOCCNC(=O)CC[C@H](NC(=O)CCCCCCCCCCCCCCCCC(=O)O)C(=O)O)C(C)(C)SSC(C)(C)[C@@H](C(=O)N[C@@H](Cc2ccc(OCCN)cc2)C(=O)N[C@@H](Cc2ccc3ccccc3c2)C(=O)NC2(C(=O)N[C@@H](CCC(=O)O)C(=O)N[C@@H](CC(N)=O)C(=O)N[C@@H](Cc3cccnc3)C(=O)N(C)CC(=O)NCCOCCOCC[N+](C)(C)C)CCOCC2)NC1=O [compound 67, HOC18gEPEG2PEG2CO-r-Pen(3)-N-T-7MeW-K(Ac)-Pen(3)-AEF-2Nal-THP-E-N-3Pya-Sar-CONH(PEG3a)] ({C18 diacid-γGlu-AEEA-AEEA}-[dR][Pen]NT[Trp(7-Me)]K(Ac)[Pen][AEF][2Nal][Thp]EN[3Pal][Sar]-{NH(CH2CH2O)2CH2CH2NMe3+}; disulfide 2-7) | 0.5 to 5 |
| < 50 | CC(=O)N[C@H](CCCNC(=N)N)C(=O)N[C@@H]1C(=O)N[C@@H](CC(N)=O)C(=O)N[C@@H]([C@@H](C)O)C(=O)N[C@@H](Cc2c[nH]c3c(C)cccc23)C(=O)N[C@@H](CCCCN(C)C(=O)CCOCCOCC[N+](C)(C)C)C(=O)N[C@H](C(=O)N[C@@H](Cc2ccc(OCCN)cc2)C(=O)N[C@@H](Cc2ccc3ccccc3c2)C(=O)NC2(C(=O)N[C@@H](CCC(=O)O)C(=O)N[C@@H](CC(N)=O)C(=O)N[C@@H](Cc3cccnc3)C(=O)N(C)CC(=O)N[C@@H](CCCCNC(=O)COCCOCCNC(=O)COCCOCCNC(=O)CC[C@H](NC(=O)CCCCCCCCCCCCCCCCC(=O)O)C(=O)O)C(N)=O)CCOCC2)C(C)(C)SSC1(C)C [compound 70, MeCO-r-Pen(3)-N-T-7MeW-K(NMecPEG3a)-Pen(3)-AEF-2Nal-THP-E-N-3Pya-Sar-K(PEG2PEG2C18OH)-CONH2] (Ac-[dR][Pen]NT[Trp(7-Me)][Lys(Me)](Me3N+(CH2)2O(CH2)2O(CH2)2CO)[Pen][AEF][2Nal][Thp]EN[3Pal][Sar]K([AEEA-AEEA-γGlu-C18 diacid])-NH2; disulfide 2-7) | < 0.5 |
